# Like-named read-outs stand apart in the source and are kept apart here.
# How the values were obtained:
# Assay type in all cases: in vivo
# C. cephalonica larvae [1] = assay: whole plant or invertebrate; conditions: Corcyra cephalonica, read-out: Mean (%) mortality of insects, laboratory trials; for mortality at 750 mg/kg: dosage of 750 mg/kg; for mortality at 1000 mg/kg: dosage of 1 g/kg
# Protocol: (§1) The composition for protecting agricultural products was prepared. A new method was employed using rice bran, as carrier material. 500 g of clean and uncontaminated rice bran collected from the rice mills was completely dehydrated by sun drying. 25 g of the botanical extract of the P. betel in 125 ml of acetone was sprayed uniformly on to the rice bran. Mixed manually and allowed to shade dry for about 20 min.
# C. chinensis adult [2] = assay: whole plant or invertebrate; conditions: Callosobruchus chinensis, read-out: Mean (%) mortality of insects, laboratory trials; for mortality at 750 mg/kg: dosage of 750 mg/kg; for mortality at 1000 mg/kg: dosage of 1 g/kg
# Protocol: as §1
# S. oryzae [3] = assay: whole plant or invertebrate; conditions: Sitophilus oryzae, laboratory trials, read-out: Mean (%) mortality of insects; for mortality at 750 mg/kg: dosage of 750 mg/kg; for mortality at 1000 mg/kg: dosage of 1 g/kg
# Protocol: as §1
# T. granarium adult [4] = assay: whole plant or invertebrate; conditions: Trogoderma granarium, read-out: Mean (%) mortality of insects, laboratory trials; for mortality at 750 mg/kg: dosage of 750 mg/kg; for mortality at 1000 mg/kg: dosage of 1 g/kg
# Protocol: as §1
# C. cephalonica larvae [5] = conditions: field evaluation, dosage of 25 mg/25 Kg
# C. chinensis adult [6] = conditions: field evaluation, dosage of 25 mg/25 Kg
# T. granarium adult [7] = conditions: field evaluation, dosage of 25 mg/25 Kg
# S. oryzae [8] = conditions: field evaluation, dosage of 25 mg/25 Kg
smiles,measurement,setting,value
"C=CCc1ccc(O)c(OC)c1 [Eugenol, 4-Allyl-2-methoxyphenol]",mortality at 750 mg/kg,C. cephalonica larvae [1]; 1st week,100%
same,mortality at 750 mg/kg,C. cephalonica larvae [1]; 2nd week,100%
same,mortality at 750 mg/kg,C. cephalonica larvae [1]; 3rd week,53.3%
same,mortality at 750 mg/kg,C. cephalonica larvae [1]; 4th week,13.3%
same,mortality at 750 mg/kg,C. cephalonica larvae [1]; 5th week,0%
same,mortality at 750 mg/kg,C. cephalonica larvae [1]; 6th week,0%
same,mortality at 1000 mg/kg,C. cephalonica larvae [1]; 1st week,100%
same,mortality at 1000 mg/kg,C. cephalonica larvae [1]; 2nd week,100%
same,mortality at 1000 mg/kg,C. cephalonica larvae [1]; 3rd week,74%
same,mortality at 1000 mg/kg,C. cephalonica larvae [1]; 4th week,29%
same,mortality at 1000 mg/kg,C. cephalonica larvae [1]; 5th week,13.3%
same,mortality at 1000 mg/kg,C. cephalonica larvae [1]; 6th week,0%
same,mortality at 750 mg/kg,C. chinensis adult [2]; 1st week,100%
same,mortality at 750 mg/kg,C. chinensis adult [2]; 2nd week,100%
same,mortality at 750 mg/kg,C. chinensis adult [2]; 3rd week,58.4%
same,mortality at 750 mg/kg,C. chinensis adult [2]; 4th week,20%
same,mortality at 750 mg/kg,C. chinensis adult [2]; 5th week,0%
same,mortality at 750 mg/kg,C. chinensis adult [2]; 6th week,0%
same,mortality at 1000 mg/kg,C. chinensis adult [2]; 1st week,100%
same,mortality at 1000 mg/kg,C. chinensis adult [2]; 2nd week,100%
same,mortality at 1000 mg/kg,C. chinensis adult [2]; 3rd week,63%
same,mortality at 1000 mg/kg,C. chinensis adult [2]; 4th week,35%
same,mortality at 1000 mg/kg,C. chinensis adult [2]; 5th week,20%
same,mortality at 1000 mg/kg,C. chinensis adult [2]; 6th week,0%
same,mortality at 750 mg/kg,S. oryzae [3]; 1st week,100%
same,mortality at 750 mg/kg,S. oryzae [3]; 2nd week,100%
same,mortality at 750 mg/kg,S. oryzae [3]; 3rd week,40%
same,mortality at 750 mg/kg,S. oryzae [3]; 4th week,20%
same,mortality at 750 mg/kg,S. oryzae [3]; 5th week,0%
same,mortality at 750 mg/kg,S. oryzae [3]; 6th week,0%
same,mortality at 1000 mg/kg,S. oryzae [3]; 1st week,100%
same,mortality at 1000 mg/kg,S. oryzae [3]; 2nd week,100%
same,mortality at 1000 mg/kg,S. oryzae [3]; 3rd week,40%
same,mortality at 1000 mg/kg,S. oryzae [3]; 4th week,35%
same,mortality at 1000 mg/kg,S. oryzae [3]; 5th week,25%
same,mortality at 1000 mg/kg,S. oryzae [3]; 6th week,0%
same,mortality at 750 mg/kg,T. granarium adult [4]; 1st week,100%
same,mortality at 750 mg/kg,T. granarium adult [4]; 2nd week,100%
same,mortality at 750 mg/kg,T. granarium adult [4]; 3rd week,26%
same,mortality at 750 mg/kg,T. granarium adult [4]; 4th week,13.3%
same,mortality at 750 mg/kg,T. granarium adult [4]; 5th week,0%
same,mortality at 750 mg/kg,T. granarium adult [4]; 6th week,0%
same,mortality at 1000 mg/kg,T. granarium adult [4]; 1st week,100%
same,mortality at 1000 mg/kg,T. granarium adult [4]; 2nd week,100%
same,mortality at 1000 mg/kg,T. granarium adult [4]; 3rd week,40%
same,mortality at 1000 mg/kg,T. granarium adult [4]; 4th week,23%
same,mortality at 1000 mg/kg,T. granarium adult [4]; 5th week,0%
same,mortality at 1000 mg/kg,T. granarium adult [4]; 6th week,0%
same,Mean (%) mortality of insects,C. cephalonica larvae [5]; 1st week,100%
same,Mean (%) mortality of insects,C. cephalonica larvae [5]; 2nd week,100%
same,Mean (%) mortality of insects,C. cephalonica larvae [5]; 3rd week,89%
same,Mean (%) mortality of insects,C. cephalonica larvae [5]; 4th week,66%
same,Mean (%) mortality of insects,C. cephalonica larvae [5]; 5th week,23%
same,Mean (%) mortality of insects,C. cephalonica larvae [5]; 6th week,0%
same,Mean (%) mortality of insects,C. cephalonica larvae [5]; 7th week,0%
same,Mean (%) mortality of insects,C. chinensis adult [6]; 1st week,100%
same,Mean (%) mortality of insects,C. chinensis adult [6]; 2nd week,100%
same,Mean (%) mortality of insects,C. chinensis adult [6]; 3rd week,100%
same,Mean (%) mortality of insects,C. chinensis adult [6]; 4th week,53%
same,Mean (%) mortality of insects,C. chinensis adult [6]; 5th week,39%
same,Mean (%) mortality of insects,C. chinensis adult [6]; 6th week,12.4%
same,Mean (%) mortality of insects,C. chinensis adult [6]; 7th week,0%
same,Mean (%) mortality of insects,T. granarium adult [7]; 1st week,100%
same,Mean (%) mortality of insects,T. granarium adult [7]; 2nd week,100%
same,Mean (%) mortality of insects,T. granarium adult [7]; 3rd week,72%
same,Mean (%) mortality of insects,T. granarium adult [7]; 4th week,42%
same,Mean (%) mortality of insects,T. granarium adult [7]; 5th week,20%
same,Mean (%) mortality of insects,T. granarium adult [7]; 6th week,0%
same,Mean (%) mortality of insects,T. granarium adult [7]; 7th week,0%
same,Mean (%) mortality of insects,S. oryzae [8]; 1st week,100%
same,Mean (%) mortality of insects,S. oryzae [8]; 2nd week,100%
same,Mean (%) mortality of insects,S. oryzae [8]; 3rd week,85%
same,Mean (%) mortality of insects,S. oryzae [8]; 4th week,50%
same,Mean (%) mortality of insects,S. oryzae [8]; 6th week,0%
same,Mean (%) mortality of insects,S. oryzae [8]; 7th week,0%
